These results are taken from patent publication US20260028365A1 (BIOGEN MA INC., priority 2022, published 2026).

Where two headings read alike, the source gives them in different places.

One test addresses JH2 domain of human Tyk2 (Homo sapiens (Human), UniProt P29597). The test can be described thus: JH2 Biochemical Assay (TR-FRET probe displacement). Type of test: binding. (In general: TR-FRET usually uses a lanthanide donor and a delayed reading to cut background.)
The target of the next test is Tyk2 (Homo sapiens (Human), UniProt P29597). The test can be described thus: pSTAT4 Cell Assay (MSD, NK92 cells). The test is classed as cell-based.
Chain of Tyk2 (P29597 whole entry): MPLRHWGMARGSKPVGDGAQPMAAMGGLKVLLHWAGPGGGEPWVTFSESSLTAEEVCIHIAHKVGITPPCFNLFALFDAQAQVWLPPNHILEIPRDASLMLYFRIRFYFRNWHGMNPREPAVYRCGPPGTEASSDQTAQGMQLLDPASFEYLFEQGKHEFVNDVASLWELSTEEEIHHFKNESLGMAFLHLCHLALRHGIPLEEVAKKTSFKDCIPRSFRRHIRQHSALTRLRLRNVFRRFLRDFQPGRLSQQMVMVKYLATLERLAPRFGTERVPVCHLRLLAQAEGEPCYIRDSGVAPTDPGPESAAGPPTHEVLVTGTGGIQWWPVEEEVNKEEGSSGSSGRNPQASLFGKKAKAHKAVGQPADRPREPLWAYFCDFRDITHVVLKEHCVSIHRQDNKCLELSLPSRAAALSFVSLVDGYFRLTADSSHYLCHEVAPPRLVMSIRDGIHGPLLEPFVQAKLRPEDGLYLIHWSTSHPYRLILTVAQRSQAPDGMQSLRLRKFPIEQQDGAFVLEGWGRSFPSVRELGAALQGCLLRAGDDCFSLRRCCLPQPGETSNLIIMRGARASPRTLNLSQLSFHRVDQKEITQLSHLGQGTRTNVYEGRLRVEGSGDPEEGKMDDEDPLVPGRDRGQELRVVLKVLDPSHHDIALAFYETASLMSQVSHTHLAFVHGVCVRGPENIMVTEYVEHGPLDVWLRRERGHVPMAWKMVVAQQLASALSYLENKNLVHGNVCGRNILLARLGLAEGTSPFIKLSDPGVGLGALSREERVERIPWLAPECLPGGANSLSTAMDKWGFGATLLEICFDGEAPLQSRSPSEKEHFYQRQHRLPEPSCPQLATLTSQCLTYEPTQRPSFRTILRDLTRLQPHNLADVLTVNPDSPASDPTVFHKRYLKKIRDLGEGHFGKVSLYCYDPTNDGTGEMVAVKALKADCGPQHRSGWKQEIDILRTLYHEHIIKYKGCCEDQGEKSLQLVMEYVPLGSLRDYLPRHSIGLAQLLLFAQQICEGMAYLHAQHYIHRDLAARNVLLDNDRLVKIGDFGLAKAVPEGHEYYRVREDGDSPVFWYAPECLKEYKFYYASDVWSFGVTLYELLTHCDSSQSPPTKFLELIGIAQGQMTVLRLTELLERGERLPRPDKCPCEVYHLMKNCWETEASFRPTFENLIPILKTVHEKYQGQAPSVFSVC
A further test deals with JAK2 (Homo sapiens (Human), UniProt O60674). The test can be described thus: pSTAT5 Cell Assay (MSD, TF1 cells). The test is classed as cell-based. A digest of the protocol:
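Serum-starved TF1 cells were pretreated with compound for 1 h (10-point four-fold series from 10 μM), then stimulated with 30 ng/mL IL-3 for 15 min. pSTAT5 in lysates was measured by MSD immunoassay. IC50 came from a 4-parameter logistic fit.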

Another test addresses JAK1 (Homo sapiens (Human), UniProt P23458). The test is described as follows: pSTAT3 Cell Assay (MSD, TF1 cells). Type of test: cell-based. A digest of the protocol:
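Serum starvation, 1 h compound (10 pt, 4-fold from 10 μM), IL-6 15 min, lysis. pSTAT3 read by MSD immunoassay, anti-STAT3 Abs. Normalized % activity vs log[cpd], 4-PL fit → IC50.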

[1] abbreviates: TR-FRET probe displacement, JH2 domain of human Tyk2.
Where [2] appears, read: TR-FRET probe displacement, JH2 domain.
Where [3] appears, read: JH2 domain of human Tyk2, TR-FRET probe displacement.

Chain of JAK2 (O60674 whole entry): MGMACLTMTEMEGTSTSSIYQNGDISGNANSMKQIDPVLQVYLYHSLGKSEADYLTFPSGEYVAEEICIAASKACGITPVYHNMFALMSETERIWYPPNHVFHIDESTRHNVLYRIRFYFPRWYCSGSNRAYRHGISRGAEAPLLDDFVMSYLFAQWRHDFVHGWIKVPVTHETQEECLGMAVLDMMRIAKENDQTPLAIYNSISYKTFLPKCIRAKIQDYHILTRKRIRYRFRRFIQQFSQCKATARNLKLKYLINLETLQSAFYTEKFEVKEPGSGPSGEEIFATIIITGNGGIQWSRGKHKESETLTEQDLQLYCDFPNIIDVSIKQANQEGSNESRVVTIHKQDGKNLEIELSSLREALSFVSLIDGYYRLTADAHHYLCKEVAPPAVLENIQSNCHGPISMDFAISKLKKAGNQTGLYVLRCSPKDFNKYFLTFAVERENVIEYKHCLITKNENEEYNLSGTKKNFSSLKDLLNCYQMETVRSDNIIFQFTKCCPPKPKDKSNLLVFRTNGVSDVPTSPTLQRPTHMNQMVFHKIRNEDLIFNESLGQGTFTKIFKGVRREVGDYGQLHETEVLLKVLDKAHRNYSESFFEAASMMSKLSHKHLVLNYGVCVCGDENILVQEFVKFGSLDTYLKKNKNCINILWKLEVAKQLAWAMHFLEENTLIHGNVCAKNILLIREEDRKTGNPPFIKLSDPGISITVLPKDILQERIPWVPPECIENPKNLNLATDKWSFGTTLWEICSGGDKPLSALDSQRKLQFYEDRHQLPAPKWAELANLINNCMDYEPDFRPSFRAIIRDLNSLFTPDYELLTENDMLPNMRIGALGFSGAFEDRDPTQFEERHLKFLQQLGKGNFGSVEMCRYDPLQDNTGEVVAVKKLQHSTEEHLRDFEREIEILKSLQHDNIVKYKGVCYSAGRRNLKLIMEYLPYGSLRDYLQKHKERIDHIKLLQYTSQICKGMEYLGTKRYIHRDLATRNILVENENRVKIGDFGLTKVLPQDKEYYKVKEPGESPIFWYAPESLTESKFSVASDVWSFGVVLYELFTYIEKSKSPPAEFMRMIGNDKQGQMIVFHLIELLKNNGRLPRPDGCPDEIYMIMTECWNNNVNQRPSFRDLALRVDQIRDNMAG
Chain of JH2 domain of human Tyk2 (P29597 575-876): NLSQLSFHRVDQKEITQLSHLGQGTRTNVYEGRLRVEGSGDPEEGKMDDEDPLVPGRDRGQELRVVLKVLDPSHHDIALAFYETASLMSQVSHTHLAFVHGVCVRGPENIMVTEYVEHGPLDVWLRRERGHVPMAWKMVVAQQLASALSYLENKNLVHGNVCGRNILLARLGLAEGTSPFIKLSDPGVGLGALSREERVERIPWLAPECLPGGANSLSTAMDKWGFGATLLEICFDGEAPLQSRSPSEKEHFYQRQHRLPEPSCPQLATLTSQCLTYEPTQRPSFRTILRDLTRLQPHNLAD
Chain of JAK1 (P23458 whole entry): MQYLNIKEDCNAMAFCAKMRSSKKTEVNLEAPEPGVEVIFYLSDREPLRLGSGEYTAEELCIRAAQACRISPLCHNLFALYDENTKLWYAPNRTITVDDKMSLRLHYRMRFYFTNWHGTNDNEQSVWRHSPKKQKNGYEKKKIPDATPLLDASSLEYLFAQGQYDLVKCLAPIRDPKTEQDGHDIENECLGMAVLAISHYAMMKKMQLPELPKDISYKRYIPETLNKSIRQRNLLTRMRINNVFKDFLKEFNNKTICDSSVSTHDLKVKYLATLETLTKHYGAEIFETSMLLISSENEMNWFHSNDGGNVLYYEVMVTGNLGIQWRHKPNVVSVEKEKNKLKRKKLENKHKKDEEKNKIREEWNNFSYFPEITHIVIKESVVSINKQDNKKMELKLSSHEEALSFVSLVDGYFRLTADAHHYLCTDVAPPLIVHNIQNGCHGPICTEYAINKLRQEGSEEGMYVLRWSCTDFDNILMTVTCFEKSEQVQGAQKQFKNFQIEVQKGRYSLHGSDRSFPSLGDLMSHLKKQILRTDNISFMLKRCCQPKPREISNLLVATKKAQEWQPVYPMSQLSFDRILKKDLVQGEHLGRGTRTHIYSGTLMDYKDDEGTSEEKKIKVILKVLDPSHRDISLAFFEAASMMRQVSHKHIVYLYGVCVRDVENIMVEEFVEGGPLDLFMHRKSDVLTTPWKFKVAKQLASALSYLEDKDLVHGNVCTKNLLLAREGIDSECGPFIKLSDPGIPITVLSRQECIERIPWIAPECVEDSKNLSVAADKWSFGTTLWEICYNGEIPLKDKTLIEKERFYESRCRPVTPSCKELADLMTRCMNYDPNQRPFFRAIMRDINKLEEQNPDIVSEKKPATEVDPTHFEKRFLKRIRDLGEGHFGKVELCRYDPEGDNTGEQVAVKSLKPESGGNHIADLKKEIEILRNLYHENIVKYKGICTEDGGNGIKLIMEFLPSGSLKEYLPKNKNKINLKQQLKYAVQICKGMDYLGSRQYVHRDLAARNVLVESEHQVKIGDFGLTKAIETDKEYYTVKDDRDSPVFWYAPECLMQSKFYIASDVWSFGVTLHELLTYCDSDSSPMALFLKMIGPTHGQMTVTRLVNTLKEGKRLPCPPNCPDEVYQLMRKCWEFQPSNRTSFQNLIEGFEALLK

The term IC50 denotes the midpoint of a concentration-inhibition curve. Higher therefore signals lower potency. `CC(=O)Nc1cc(Nc2cc(OC3CC3)nc(C(C)(F)F)n2)c(OCC2CCCO2)cn1` (centres unmarked) [Example 139, N-(4-((6-cyclopropoxy-2-(1,1-difluoroethyl)pyrimidin-4-yl)amino)-5-((tetrahydrofuran-2-yl)methoxy)pyridin-2-yl)acetamide]: the IC50 is ≤ 0.01 µM at JH2 domain of human Tyk2 (setting [1]); ≤ 0.01 µM against Tyk2 (MSD); ≥ 1 µM on JAK2 (IL-3 stimulation, MSD); ≥ 1 µM at JAK1 (IL-6 stimulation, MSD).
In the case of `CCOc1cc(Nc2cc(NC(C)=O)ncc2OCCOC)nc(C(C)(F)F)n1` [Example 77, N-(4-((2-(1,1-difluoroethyl)-6-ethoxypyrimidin-4-yl)amino)-5-(2-methoxyethoxy)pyridin-2-yl)acetamide], the concentration for half-maximal inhibition (IC50) on JH2 domain of human Tyk2 (setting [1]) was ≤ 0.01 µM; against Tyk2 (MSD) it was ≤ 0.01 µM; against JAK2 (IL-3 stimulation, MSD), ≥ 1 µM; against JAK1 (IL-6 stimulation, MSD), ≥ 1 µM.
For `COc1ccc(-c2cnc(NC(C)=O)cc2Nc2ccnc(C(C)(C)F)n2)nn1` [Example 835, N-(4-((2-(2-fluoropropan-2-yl)pyrimidin-4-yl)amino)-5-(6-methoxypyridazin-3-yl)pyridin-2-yl)acetamide], the IC50 is ≤ 0.01 µM at JH2 domain of human Tyk2 (setting [2]), ≤ 0.01 µM against Tyk2, ≥ 1 µM at JAK2 (IL-3 stimulated) and ≥ 1 µM on JAK1 (IL-6 stimulated).
For the compound `CC(=O)Nc1cc(Nc2cc(C)nc(C(C)(F)F)n2)c(-c2cnccn2)cn1` [Example 620, N-(4-((2-(1,1-difluoroethyl)-6-methylpyrimidin-4-yl)amino)-5-(pyrazin-2-yl)pyridin-2-yl)acetamide], the IC50 at JH2 domain of human Tyk2 (setting [3]) is ≤ 0.01 µM; against Tyk2 (MSD), 0.01 to 0.1 µM; on JAK2 (IL-3 stimulated, MSD), ≥ 1 µM; against JAK1 (IL-6 stimulated, MSD) it was ≥ 1 µM.
For `CC(=O)Nc1cc(Nc2ccnc(C(C)(C)F)n2)c(-c2ccnc(C)n2)cn1` [Example 175, N-(4-((2-(2-fluoropropan-2-yl)pyrimidin-4-yl)amino)-5-(2-methylpyrimidin-4-yl)pyridin-2-yl)acetamide], the IC50 at JH2 domain of human Tyk2 (setting [1]) was ≤ 0.01 µM; at Tyk2 (MSD), ≤ 0.01 µM; against JAK2 (IL-3 stimulation, MSD), ≥ 1 µM; at JAK1 (IL-6 stimulation, MSD) it was ≥ 1 µM.
With `COCCOc1cnc(NC(C)=O)cc1Nc1cc(C2CC2)nc(C(C)(F)F)n1` [Example 66, N-(4-((6-cyclopropyl-2-(1,1-difluoroethyl)pyrimidin-4-yl)amino)-5-(2-methoxyethoxy)pyridin-2-yl)acetamide], the IC50 is ≤ 0.01 µM on JH2 domain of human Tyk2 (setting [1]); ≤ 0.01 µM against Tyk2 (MSD); ≥ 1 µM against JAK2 (IL-3 stimulation, MSD); ≥ 1 µM on JAK1 (IL-6 stimulation, MSD).
Regarding `CCOc1cnc(NC(C)=O)cc1Nc1cc(CC)nc(C(C)(F)F)n1` [Example 12, N-(4-((2-(1,1-difluoroethyl)-6-ethylpyrimidin-4-yl)amino)-5-ethoxypyridin-2-yl)acetamide], the IC50 at JH2 domain of human Tyk2 (setting [1]) is ≤ 0.01 µM; at Tyk2 (MSD), 0.01 to 0.1 µM; against JAK2 (IL-3 stimulation, MSD) it was ≥ 1 µM; at JAK1 (IL-6 stimulation, MSD), ≥ 1 µM.
As to `CC(=O)Nc1cc(Nc2cc(C)nc(C(C)(F)F)n2)c(OCc2ccccn2)cn1` [Example 101, N-(4-((2-(1,1-difluoroethyl)-6-methylpyrimidin-4-yl)amino)-5-(pyridin-2-ylmethoxy)pyridin-2-yl)acetamide], the IC50 on JH2 domain of human Tyk2 (setting [1]) is ≤ 0.01 µM; against Tyk2 (MSD), 0.01 to 0.1 µM; at JAK2 (IL-3 stimulation, MSD), ≥ 1 µM; against JAK1 (IL-6 stimulation, MSD), ≥ 1 µM.
Regarding `CCC(=O)Nc1cc(Nc2cc(CC)nc(C(C)(F)F)n2)c(OCCOC)cn1` [Example 88, N-(4-((2-(1,1-difluoroethyl)-6-ethylpyrimidin-4-yl)amino)-5-(2-methoxyethoxy)pyridin-2-yl)propionamide], the IC50 is ≤ 0.01 µM at JH2 domain of human Tyk2 (setting [1]); ≤ 0.01 µM at Tyk2 (MSD); ≥ 1 µM at JAK2 (IL-3 stimulation, MSD); ≥ 1 µM against JAK1 (IL-6 stimulation, MSD).
For `CCOc1cnc(NC(C)=O)cc1Nc1nccc(C(C)(F)F)n1` [Example 3, N-(4-((4-(1,1-difluoroethyl)pyrimidin-2-yl)amino)-5-ethoxypyridin-2-yl)acetamide], the IC50 on JH2 domain of human Tyk2 (setting [1]) was ≤ 0.01 µM; against Tyk2 (MSD), 0.01 to 0.1 µM; on JAK2 (IL-3 stimulation, MSD) it was ≥ 1 µM; at JAK1 (IL-6 stimulation, MSD) it was ≥ 1 µM.
Turning to `CC(=O)Nc1cc(Nc2cc(OC3CC3)nc(C(C)(F)F)n2)c(OCC2COCCO2)cn1` (centres unmarked) [Example 445, N-(5-((1,4-dioxan-2-yl)methoxy)-4-((6-cyclopropoxy-2-(1,1-difluoroethyl)pyrimidin-4-yl)amino)pyridin-2-yl)acetamide], the IC50 on JH2 domain of human Tyk2 (setting [3]) was ≤ 0.01 µM; against Tyk2 (MSD), ≤ 0.01 µM; on JAK2 (IL-3 stimulated, MSD), ≥ 1 µM; on JAK1 (IL-6 stimulated, MSD), ≥ 1 µM.
`COc1cnc(NC(C)=O)cc1Nc1cc(C(C)C)nc(C(C)(F)F)n1` [Example 52, N-(4-((2-(1,1-difluoroethyl)-6-isopropylpyrimidin-4-yl)amino)-5-methoxypyridin-2-yl)acetamide]: the concentration for half-maximal inhibition (IC50) at JH2 domain of human Tyk2 (setting [1]) was ≤ 0.01 µM; against Tyk2 (MSD), 0.01 to 0.1 µM; at JAK2 (IL-3 stimulation, MSD), ≥ 1 µM; at JAK1 (IL-6 stimulation, MSD), ≥ 1 µM.
For `CCc1cc(Nc2cc(NC(C)=O)ncc2-c2ncc(C3COCCO3)cn2)nc(C(C)(F)F)n1` (centres unmarked) [Example 840, N-(5-(5-(1,4-dioxan-2-yl)pyrimidin-2-yl)-4-((2-(1,1-difluoroethyl)-6-ethylpyrimidin-4-yl)amino)pyridin-2-yl)acetamide], the IC50 at JH2 domain of human Tyk2 (setting [2]) was ≤ 0.01 µM; at Tyk2, ≤ 0.01 µM; against JAK2 (IL-3 stimulated) it was ≥ 1 µM; against JAK1 (IL-6 stimulated), ≥ 1 µM.
On to `COCCOc1cnc(NC(C)=O)cc1Nc1cc(OC(C)C)nc(C(C)(F)F)n1` [Example 76, N-(4-((2-(1,1-difluoroethyl)-6-isopropoxypyrimidin-4-yl)amino)-5-(2-methoxyethoxy)pyridin-2-yl)acetamide], for which the IC50 on JH2 domain of human Tyk2 (setting [1]) was ≤ 0.01 µM; against Tyk2 (MSD) it was ≤ 0.01 µM; against JAK2 (IL-3 stimulation, MSD), ≥ 1 µM; on JAK1 (IL-6 stimulation, MSD), ≥ 1 µM.
`[2H]C([2H])([2H])C([2H])([2H])Oc1cnc(NC(C)=O)cc1Nc1cc(C(C)C)nc(C(C)(F)F)n1` [Example 362, N-(4-((2-(1,1-difluoroethyl)-6-isopropylpyrimidin-4-yl)amino)-5-(ethoxy-d5)pyridin-2-yl)acetamide]: the half-maximal inhibitory concentration (IC50) at JH2 domain of human Tyk2 (setting [1]) was ≤ 0.01 µM; against Tyk2 (MSD), 0.01 to 0.1 µM; at JAK2 (IL-3 stimulation, MSD), ≥ 1 µM; against JAK1 (IL-6 stimulation, MSD) it was ≥ 1 µM.
With `CC(=O)Nc1cc(Nc2cc(C)nc(C(C)(F)F)n2)c(C2CC2)cn1` [Example 29, N-(5-cyclopropyl-4-((2-(1,1-difluoroethyl)-6-methylpyrimidin-4-yl)amino)pyridin-2-yl)acetamide], the IC50 is ≤ 0.01 µM on JH2 domain of human Tyk2 (setting [1]); 0.1 to 1 µM at Tyk2 (MSD); ≥ 1 µM against JAK2 (IL-3 stimulation, MSD); ≥ 1 µM against JAK1 (IL-6 stimulation, MSD).
Take `CC(=O)Nc1cc(Nc2ccnc(C(C)(F)F)n2)c(-c2cnc(C(C)(C)O)cn2)cn1` [Example 853, N-(4-((2-(1,1-difluoroethyl)pyrimidin-4-yl)amino)-5-(5-(2-hydroxypropan-2-yl)pyrazin-2-yl)pyridin-2-yl)acetamide]: the concentration for half-maximal inhibition (IC50) on JH2 domain of human Tyk2 (setting [2]) was ≤ 0.01 µM; against Tyk2 it was 0.01 to 0.1 µM; at JAK2 (IL-3 stimulated), ≥ 1 µM; against JAK1 (IL-6 stimulated), ≥ 1 µM.
For `CC(=O)Nc1cc(Nc2cc(C)nc(C(C)(F)F)n2)c(OCC[C@@H](C)F)cn1` [Example 336, (R)-N-(4-((2-(1,1-difluoroethyl)-6-methylpyrimidin-4-yl)amino)-5-(3-fluorobutoxy)pyridin-2-yl)acetamide], the IC50 on JH2 domain of human Tyk2 (setting [1]) is ≤ 0.01 µM; against Tyk2 (MSD), 0.01 to 0.1 µM; at JAK2 (IL-3 stimulation, MSD), ≥ 1 µM; at JAK1 (IL-6 stimulation, MSD) it was ≥ 1 µM.
For the compound `COCCOc1cnc(NC(C)=O)cc1Nc1cc(OC2CC2)nc(C(C)(F)F)n1` [Example 298, N-(4-((6-cyclopropoxy-2-(1,1-difluoroethyl)pyrimidin-4-yl)amino)-5-(2-methoxyethoxy)pyridin-2-yl)acetamide], the IC50 was ≤ 0.01 µM at JH2 domain of human Tyk2 (setting [1]); ≤ 0.01 µM against Tyk2 (MSD); ≥ 1 µM against JAK2 (IL-3 stimulation, MSD); ≥ 1 µM against JAK1 (IL-6 stimulation, MSD).
For `[2H]C([2H])(C)Oc1cnc(NC(C)=O)cc1Nc1cc(C(C)C)nc(C(C)(F)F)n1` [Example 364, N-(4-((2-(1,1-difluoroethyl)-6-isopropylpyrimidin-4-yl)amino)-5-(ethoxy-1,1-d2)pyridin-2-yl)acetamide], the IC50 on JH2 domain of human Tyk2 (setting [1]) was ≤ 0.01 µM; against Tyk2 (MSD), 0.01 to 0.1 µM; on JAK2 (IL-3 stimulation, MSD) it was ≥ 1 µM; on JAK1 (IL-6 stimulation, MSD) it was ≥ 1 µM.
For `CC(=O)Nc1cc(Nc2cc(C)nc(C(C)(F)F)n2)c(-c2ncc(OC(F)F)cn2)cn1` [Example 660, N-(4-((2-(1,1-difluoroethyl)-6-methylpyrimidin-4-yl)amino)-5-(5-(difluoromethoxy)pyrimidin-2-yl)pyridin-2-yl)acetamide], the IC50 at JH2 domain of human Tyk2 (setting [3]) is ≤ 0.01 µM; on Tyk2 (MSD), ≤ 0.01 µM; against JAK2 (IL-3 stimulated, MSD) it was ≥ 1 µM; against JAK1 (IL-6 stimulated, MSD), ≥ 1 µM.
Regarding `CCc1cc(Nc2cc(NC(C)=O)ncc2OCCOC)nc(C(C)(F)F)n1` [Example 20, N-(4-((2-(1,1-difluoroethyl)-6-ethylpyrimidin-4-yl)amino)-5-(2-methoxyethoxy)pyridin-2-yl)acetamide], the IC50 is ≤ 0.01 µM at JH2 domain of human Tyk2 (setting [1]); ≤ 0.01 µM at Tyk2 (MSD); ≥ 1 µM at JAK2 (IL-3 stimulation, MSD); ≥ 1 µM at JAK1 (IL-6 stimulation, MSD).
As to `CCc1cc(Nc2cc(NC(C)=O)ncc2-c2ccc(COC)cn2)nc(C23COC(C2)C3)n1` [Example 566, N-(4′-((2-(2-oxabicyclo[2.1.1]hexan-4-yl)-6-ethylpyrimidin-4-yl)amino)-5-(methoxymethyl)-[2,3′-bipyridin]-6′-yl)acetamide], the IC50 is ≤ 0.01 µM on JH2 domain of human Tyk2 (setting [3]); ≤ 0.01 µM at Tyk2 (MSD); ≥ 1 µM against JAK2 (IL-3 stimulated, MSD); ≥ 1 µM against JAK1 (IL-6 stimulated, MSD).
